Assay results published in PubChem BioAssay AID1259407 (Chemical Carcinogenesis Research Information System (CCRIS), 2018).
Entries after “also recorded” stand apart in the source; their conditions may differ. Activity calls are given as the source filed them. The rule behind the calls is not given here.

Tested on: CCRIS mutagenicity, Ames/micronucleus/aberration tests
Test: CCRIS mutagenicity studies
[1] = Test System: AMES SALMONELLA TYPHIMURIUM, Strain/Indicator: TA100, Metabolic Activation: NONE, Method: STANDARD PLATE

Measured: mutagenic call

CCC1(CC(=O)O)OCCc2c1[nH]c1c(C(C)O)cccc21 (stereo not given)
inactive: Test System: AMES SALMONELLA TYPHIMURIUM, Strain/Indicator: TA98, Metabolic Activation: NONE, Method: STANDARD PLATE inactive; negative | Test System: AMES SALMONELLA TYPHIMURIUM, Strain/Indicator: TA98, Metabolic Activation: RAT, LIVER, S-9, Method: STANDARD PLATE inactive; negative | [1] inactive; negative | Test System: AMES SALMONELLA TYPHIMURIUM, Strain/Indicator: TA100, Metabolic Activation: RAT, LIVER, S-9, Method: STANDARD PLATE inactive; negative | Test System: AMES SALMONELLA TYPHIMURIUM, Strain/Indicator: TA1535, Metabolic Activation: NONE, Method: STANDARD PLATE inactive; negative | Test System: AMES SALMONELLA TYPHIMURIUM, Strain/Indicator: TA1535, Metabolic Activation: RAT, LIVER, S-9, Method: STANDARD PLATE inactive; negative | Test System: AMES SALMONELLA TYPHIMURIUM, Strain/Indicator: TA1537, Metabolic Activation: NONE, Method: STANDARD PLATE inactive; negative | Test System: AMES SALMONELLA TYPHIMURIUM, Strain/Indicator: TA1537, Metabolic Activation: RAT, LIVER, S-9, Method: STANDARD PLATE inactive; negative | Test System: E. COLI, Strain/Indicator: WP2 UVRA, Metabolic Activation: NONE, Method: STANDARD PLATE inactive; negative | Test System: E. COLI, Strain/Indicator: WP2 UVRA, Metabolic Activation: RAT, LIVER, S-9, Method: STANDARD PLATE inactive; negative

O=C1NC(=O)C(C(Cl)Cl)=C1Cl
active: [1] active; positive

c12c3c4c5c1c1c6c7c2c2c8c3c3c9c4c4c%10c5c5c1c1c6c6c%11c7c2c2c7c8c3c3c8c9c4c4c9c%10c5c5c1c1c6c6c%11c2c2c7c3c3c8c4c4c9c5c1c1c6c2c3c41
active: End Point: In vitro micronucleus, Test System: Chinese hamster ovary (CHO) cells, Metabolic Activation: None active; positive (material tested was fullerol, c60(oh)24); also recorded: active; positive; actual chemical tested was hydroxyl fullerene c-60 | End Point: In vitro micronucleus, Test System: Human Hela cells, Metabolic Activation: None active; positive (material tested was fullerol, c60(oh)24) | End Point: In vitro micronucleus, Test System: Human embryonic kidney cells (HEK 293), Metabolic Activation: None active; positive (material tested was fullerol, c60(oh)24) | Test System: Gpt delta transgenic mouse primary embryo fibroblasts (MEF), Strain/Indicator: Red/gam gene mutants, Metabolic Activation: None, Method: Spi- mutation assay active; positive
inactive: End Point: In vitro chromosomal aberrations, Test System: Chinese hamster lung (CHL/IU) cells, Metabolic Activation: None inactive; negative | End Point: In vitro chromosomal aberrations, Test System: Chinese hamster lung (CHL/IU) cells, Metabolic Activation: S-9 inactive; negative | End Point: In vitro micronucleus, Test System: Human embryonic kidney 293 (HEK293) cells, Metabolic Activation: None inactive; negative; actual chemical tested was hydroxyl fullerene c-60 | End Point: In vitro micronucleus, Test System: Human epidermoid-like carcinoma (Hela) cells, Metabolic Activation: None inactive; negative; actual chemical tested was hydroxyl fullerene c-60 | Test System: Ames Salmonella typhimurium, Strain/Indicator: TA98, Metabolic Activation: None, Method: Preincubation inactive; negative | Test System: Ames Salmonella typhimurium, Strain/Indicator: TA98, Metabolic Activation: S-9, Method: Preincubation inactive; negative | Test System: Ames Salmonella typhimurium, Strain/Indicator: TA100, Metabolic Activation: None, Method: Preincubation inactive; negative | Test System: Ames Salmonella typhimurium, Strain/Indicator: TA100, Metabolic Activation: S-9, Method: Preincubation inactive; negative | Test System: Ames Salmonella typhimurium, Strain/Indicator: TA1535, Metabolic Activation: None, Method: Preincubation inactive; negative | Test System: Ames Salmonella typhimurium, Strain/Indicator: TA1535, Metabolic Activation: S-9, Method: Preincubation inactive; negative | Test System: Ames Salmonella typhimurium, Strain/Indicator: TA1537, Metabolic Activation: None, Method: Preincubation inactive; negative | Test System: Ames Salmonella typhimurium, Strain/Indicator: TA1537, Metabolic Activation: S-9, Method: Preincubation inactive; negative | Test System: E. coli, Strain/Indicator: WP2 uvrA/pKM101, Metabolic Activation: None, Method: Preincubation inactive; negative | Test System: E. coli, Strain/Indicator: WP2 uvrA/pKM101, Metabolic Activation: S-9, Method: Preincubation inactive; negative

Cc1cc2c(nc(N)n2C)c2ncc(-c3ccccc3)nc12
active: Test System: AMES SALMONELLA TYPHIMURIUM, Strain/Indicator: TA98, Metabolic Activation: RAT, LIVER, S-9, AROCLOR 1254, Method: STANDARD PLATE active; positive
